Measured values reported in article PMC12117050 (Scientific Reports, 2025).

Legend:
[1] = test system: CYP3A4; conditions: cited from earlier work
[2] = test system: CYP3A; conditions: cited from earlier work
[3] = test system: CYP3A; conditions: by inhibiting CYP3A activity; cited from earlier work
[4] = Midazolam pharmacokinetics in rats after 7-day MFE or water pre-treatment; conditions: rat
[5] = Sprague Dawley, plasma, po, 15 mg/kg

Row | Structure (SMILES) | Inhibition of CYP3A4 activity [1] | Inhibition of CYP3A activity in human liver microsomes [2] | Effect on pharmacokinetics of nicardipine in rats [3] | Tmax ([4]; Sprague Dawley, plasma, po) | Cmax [4, 5] | Tmax [4, 5] | Cmax ([4]; midazolam 15 mg/kg oral, control (water pre-treatment 7 days)) | AUC0−∞ higher in MFE pre-treatment group compared to control group ([4]; midazolam 15 mg/kg oral, no significant difference)
1 | O=C(O[C@@H]1Cc2c(O)cc(O)cc2O[C@@H]1c1cc(O)c(O)c(O)c1)c1cc(O)c(O)c(O)c1 [EGCG, epigallocatechin gallate] | irreversibly inhibits | moderately inhibits | alters the pharmacokinetics of nicardipine |  |  |  |  | 
2 | Cc1ncc2n1-c1ccc(Cl)cc1C(c1ccccc1F)=NC2 [Midazolam] |  |  |  | 15 min | 708 ± 91 ng/mL | 30 min | 919 ± 70 ng/mL | 12%
